Article PMC10745768, “Stereoselective Synthesis and Antiproliferative Activity of Steviol-Based Diterpene 1,3-Aminoalcohol Regioisomers” (Molecules, 2023)

Legend:
HeLa cells = assay: MTT antiproliferative assay, HeLa; type: cell-based; conditions: Homo sapiens, 72 h; for inhibition at 10 µM / inhibition at 30 µM: read-out: Growth inhibition (%) ± SEM
Description: (§1) The in vitro anticancer effects of the presented compounds were assessed using the standard MTT [3-(4,5-dimethylthiazol2-yl)-2,5-diphenyltetrazolium bromide] assay on the following human cancer cell lines: cervical (HeLa and SiHa), breast (MCF-7 and MDA-MB-231) and ovarian cancer (A2780). The selectivity of the tested compounds was determined on murine embryonal fibroblast cells (NIH/3T3). The utilised cell lines were purchased from the European Collection of Cell Cultures (Salisbury, UK). The cells were cultivated in Eagle’s minimal essential medium supplemented with 10% fetal bovine serum, 1% non-essential amino acids and 1% antibiotic-antimycotic complex (penicillin, streptomycin, amphotericin B) at 37 °C in a humidified atmosphere containing 5% CO2. All media and supplements were purchased from Lonza Group Ltd. (Basel, Switzerland). The cancer cells were seeded into 96-well plates (5000 cells/well) and incubated overnight, and the test compounds were applied in two different concentrations (10 µM and 30 µM) and incubated for another 72 h under cell-culturing conditions. […] After 72 h, 20 µL of the 5 mg/mL MTT solution was added to each well, and the plates were incubated for 4 h. The medium was removed, and the formazan crystals produced by the mitochondrial activity were dissolved in dimethyl sulfoxide (DMSO) via shaking at 37 °C for 30 min. The absorbances were measured at 545 nm using a microplate reader (SPECTROStar Nano, BMG Labtech, Offenburg, Germany). The reference agent was cisplatin, which is a widely used cytotoxic agent. The IC50 values were calculated using sigmoid curve fitting. Two independent experiments were performed with five parallel wells for each condition. Calculations were performed using the GraphPad Prism 9 software (GraphPad Software Inc., San Diego, CA, USA).

SiHa cells = assay: MTT antiproliferative assay, SiHa; type: cell-based; conditions: Homo sapiens, 72 h; for inhibition at 10 µM / inhibition at 30 µM: read-out: Growth inhibition (%) ± SEM
Description: as §1

MCF-7 cells = assay: MTT antiproliferative assay, MCF-7; type: cell-based; conditions: Homo sapiens, MCF7; for inhibition at 10 µM: MCF-7, 10 μM; for inhibition at 10 µM / inhibition at 30 µM: 72 h, read-out: Growth inhibition (%) ± SEM; for inhibition at 30 µM: MCF-7, 30 μM
Description: as §1

MDA-MB-231 cells = assay: MTT antiproliferative assay, MDA-MB-231; type: cell-based; conditions: Homo sapiens; for inhibition at 10 µM: MDA-MB-231, 10 μM; for inhibition at 10 µM / inhibition at 30 µM: 72 h, read-out: Growth inhibition (%) ± SEM; for inhibition at 30 µM: MDA-MB-231, 30 μM
Description: as §1

A2780 cells = assay: MTT antiproliferative assay, A2780; type: cell-based; conditions: Homo sapiens; for inhibition at 10 µM: A2780, 10 μM; for inhibition at 10 µM / inhibition at 30 µM: 72 h, read-out: Growth inhibition (%) ± SEM; for inhibition at 30 µM: A2780, 30 μM
Description: as §1

NIH/3T3 fibroblast cells = assay: MTT assay on non-malignant fibroblasts (selectivity); type: cell-based, murine; conditions: Mus musculus, NIH3T3; for inhibition at 10 µM: NIH/3T3, 10 μM; for inhibition at 10 µM / inhibition at 30 µM: 72 h, read-out: Growth inhibition (%) ± SEM; for inhibition at 30 µM: NIH/3T3, 30 μM
Description: as §1

Compound	inhibition at 10 µM (HeLa cells) [%]	inhibition at 30 µM (HeLa cells) [%]	inhibition at 10 µM (SiHa cells) [%]	inhibition at 30 µM (SiHa cells) [%]	inhibition at 10 µM (MCF-7 cells) [%]	inhibition at 30 µM (MCF-7 cells) [%]	inhibition at 10 µM (MDA-MB-231 cells) [%]	inhibition at 30 µM (MDA-MB-231 cells) [%]	inhibition at 10 µM (A2780 cells) [%]	inhibition at 30 µM (A2780 cells) [%]	inhibition at 10 µM (NIH/3T3 fibroblast cells) [%]	inhibition at 30 µM (NIH/3T3 fibroblast cells) [%]	melting point [°C]	IC50 (HeLa cells; read-out: calculated IC50) [µM]	IC50 (SiHa cells; read-out: calculated IC50) [µM]	IC50 (MCF-7 cells; MCF-7, 72 h, read-out: calculated IC50) [nM]	IC50 (MDA-MB-231 cells; MDA-MB-231, 72 h, read-out: calculated IC50) [µM]	IC50 (A2780 cells; A2780, 72 h, read-out: calculated IC50) [µM]	IC50 (NIH/3T3 fibroblast cells; NIH/3T3, 72 h, read-out: calculated IC50) [µM]
CC[C@H](N[C@@H]1C[C@]23CC[C@H]4[C@@](C)(CCC[C@@]4(C)C(=O)OC)[C@@H]2CC[C@@]1(CO)C3)c1ccccc1 [Compound 11, (4R,4aS,6aR,8R,9R,11aR,11bS)-Methyl 9-(hydroxymethyl)-4,11b-dimethyl-8-(((S)-1-phenylpropyl)amino)tetradecahydro-6a,9-methanocyclohepta[a]naphthalene-4-carboxylate]	< 20	94.48 ± 0.84	< 20	83.7 ± 3.19	49.5 ± 3.06	96.94 ± 0.57	< 20	90.8 ± 1.35	74.2 ± 2.1	98.12 ± 0.3	22.2 ± 2.22	93.6 ± 2.02	88 to 95						
CC[C@@H](N[C@@H]1C[C@]23CC[C@H]4[C@@](C)(CCC[C@@]4(C)C(=O)OC)[C@@H]2CC[C@@]1(CO)C3)c1ccccc1 [Compound 12, (4R,4aS,6aR,8R,9R,11aR,11bS)-Methyl 9-(hydroxymethyl)-4,11b-dimethyl-8-(((R)-1-phenylpropyl)amino)tetradecahydro-6a,9-methanocyclohepta[a]naphthalene-4-carboxylate]	< 20	90.8 ± 3.71	< 20	82.4 ± 2.09	48.6 ± 0.5	92.3 ± 2.89	< 20	91.6 ± 2.36	64.7 ± 1.95	98.32 ± 0.23	29.2 ± 1.33	95.53 ± 0.49	174 to 176						
COC(=O)[C@]1(C)CCC[C@@]2(C)[C@@H]3CC[C@@]4(CO)C[C@]3(CC[C@@H]21)C[C@H]4N[C@H](C)c1cccc2ccccc12 [Compound 13, (4R,4aS,6aR,8R,9R,11aR,11bS)-Methyl 9-(hydroxymethyl)-4,11b-dimethyl-8-(((R)-1-(naphthalen-1-yl)ethyl)amino)tetradecahydro-6a,9-methanocyclohepta[a]naphthalene-4-carboxylate]	< 20	92.3 ± 2.7	24.2 ± 3.46	87.9 ± 1.62	56.7 ± 3.88	96.84 ± 0.55	< 20	94.3 ± 1.83	83.7 ± 1.95	99.02 ± 0.39	< 20	96.88 ± 0.74	180 to 185						
COC(=O)[C@]1(C)CCC[C@@]2(C)[C@@H]3CC[C@@]4(CO)C[C@]3(CC[C@@H]21)C[C@H]4N[C@@H](C)c1cccc2ccccc12 [Compound 14, (4R,4aS,6aR,8R,9R,11aR,11bS)-Methyl 9-(hydroxymethyl)-4,11b-dimethyl-8-(((S)-1-(naphthalen-1-yl)ethyl)amino)tetradecahydro-6a,9-methanocyclohepta[a]naphthalene-4-carboxylate]	24.6 ± 2.79	95.1 ± 1.6	34.1 ± 2.53	88.88 ± 0.87	78.9 ± 4.11	97.44 ± 0.53	53.2 ± 2.44	95 ± 1.24	93.3 ± 1.99	99.57 ± 0.35	50.4 ± 2.91	97.15 ± 0.6	151 to 157						
COC(=O)[C@]1(C)CCC[C@@]2(C)[C@@H]3CC[C@@]4(CO)C[C@]3(CC[C@@H]21)C[C@H]4N[C@H](C)c1ccc2ccccc2c1 [Compound 17, (4R,4aS,6aR,8R,9R,11aR,11bS)-Methyl 9-(hydroxymethyl)-4,11b-dimethyl-8-(((R)-1-(naphthalen-2-yl)ethyl)amino)tetradecahydro-6a,9-methanocyclohepta[a]naphthalene-4-carboxylate]	90.5 ± 1.34	93.5 ± 2.5	83.3 ± 1.58	86.7 ± 1.74	86.3 ± 2.86	97.42 ± 0.71	91.5 ± 1.24	95.03 ± 0.91	100.6 ± 0.76	100 ± 0.91	20.5 ± 1.7	96.54 ± 0.62	150 to 153	3.51	5.37	2470	5.62	4.06	8.7
COC(=O)[C@]1(C)CCC[C@@]2(C)[C@@H]3CC[C@@]4(CNCc5ccccc5)C[C@]3(CC[C@@H]21)C[C@H]4O [Compound 22, (4R,4aS,6aR,8R,9S,11aR,11bS)-Methyl 9-((benzylamino)methyl)-8-hydroxy-4,11b-dimethyltetradecahydro-6a,9-methanocyclohepta[a]naphthalene-4-carboxylate]	59.2 ± 6.61	90.87 ± 0.35	69 ± 2.02	80.8 ± 2.91	90.6 ± 0.98	94.23 ± 0.82	90.95 ± 0.4	89.66 ± 0.28	69.5 ± 3.98	96.04 ± 0.45	49 ± 1.37	94.25 ± 0.45	98 to 104						
COC(=O)[C@]1(C)CCC[C@@]2(C)[C@@H]3CC[C@@]4(CN[C@@H](C)c5ccc6ccccc6c5)C[C@]3(CC[C@@H]21)C[C@H]4O [Compound 30, (4R,4aS,6aR,8R,9S,11aR,11bS)-Methyl 8-hydroxy-4,11b-dimethyl-9-((((S)-1-(naphthalen-2-yl)ethyl)amino)methyl)tetradecahydro-6a,9-methanocyclohepta[a]naphthalene-4-carboxylate]	40.8 ± 0.99	94.51 ± 0.19	< 20	101.4 ± 0.6	79.5 ± 1.01	95.63 ± 0.55	50.7 ± 3.21	98.7 ± 0.49	33.1 ± 1.23	99.71 ± 0.27	21.5 ± 0.48	100.7 ± 0.2	102 to 106						
COC(=O)C1(C)CCCC2(C)C3CCC4(CN)CC3(CCC12)CC4O [Compound 31, (4. R,4aS,6aR,8R,9S,11aR,11bS)-Methyl 9-(aminomethyl)-8-hydroxy-4,11b-dimethyltetradecahydro-6a,9-methanocyclohepta[a]naphthalene-4-carboxylate]	< 20	96.02 ± 0.89	< 20	95.68 ± 0.81	72.7 ± 3.15	99.42 ± 0.23	49.5 ± 3.47	96.82 ± 0.65	37.3 ± 1.04	97.52 ± 0.8	< 20	97.62 ± 0.71	64 to 68						
COC(=O)[C@]1(C)CCC[C@@]2(C)[C@@H]3CC[C@@]4(Cn5cc(-c6ccccc6)nn5)C[C@]3(CC[C@@H]21)CC4=O [Compound 33, (4R,4aS,6aR,9S,11aR,11bS)-Methyl 4,11b-dimethyl-8-oxo-9-((4-phenyl-1H-1,2,3-triazol-1-yl)methyl)tetradecahydro-6a,9-methanocyclohepta[a]naphthalene-4-carboxylate]	< 20	23.9 ± 5.01	< 20	< 20	57.1 ± 2.13	60.3 ± 3.65	< 20	< 20	41.1 ± 1.23	51.5 ± 1.41	54.5 ± 1.93	78.9 ± 2.52	137 to 140						
